# Values joined by “and” are separate entries in the source; they are usually repeats but may differ in a detail not shown here. Identical values can stand only once.
# Tested on: human cervix carcinoma (HeLa)
# Assay: Cytostatic activity against tumor cell lines (cell number by Coulter counter)
# Format: cell-based
# Conditions: 96 h, concentration inhibiting cell proliferation by 50%, four days incubation, mean of three repeats
# Procedure: (§1) The IC50 was defined as the compound concentration required to inhibit cell proliferation by 50%. The therapeutic index (TI) was calculated as the ratio of the compound concentration producing toxicity (IC50) to the concentration needed to exert the desired ‘therapeutic’ effect on biofilms of Salmonella and Pseudomonas, indicated by the BIC50 (dose needed to prevent biofilm formation by 50%). The higher the therapeutic index, the broader the safety window of the compound.
# (§2) Murine leukemia (L1210), human T-lymphocyte (CEM) and human cervix carcinoma (HeLa) were suspended at 300,000–500,000 cells/mL of culture medium, and 100 µL of a cell suspension was added to 100 µL of an appropriate dilution of the test compounds in 200 µL-wells of 96-well microtiter plates. After incubation at 37 °C for two (L1210), three (CEM) or four (HeLa) days, the cell number was determined using a Coulter counter. The IC50 was defined as the compound concentration required to inhibit cell proliferation by 50%.
row,SMILES,IC50 [µM]
1,CC(C)CNc1ncc(-c2ccccc2)[nH]1 [compound 19],91.4
2,c1ccc(-c2cnc(NC3CCCC3)[nH]2)cc1 [compound 20],27.3
3,CCCCNc1ncc(-c2ccc(Cl)cc2)[nH]1 [compound 21],34.7
4,CCCCCNc1ncc(-c2ccc(Cl)cc2)[nH]1 [compound 23],19.8
5,Clc1ccc(-c2cnc(NC3CCCC3)[nH]2)cc1 [compound 24],28.8
6,CC(C)CNc1ncc(-c2ccc(Br)cc2)[nH]1 [compound 26],22.6
7,CCCCCNc1ncc(-c2ccc(Br)cc2)[nH]1 [compound 27],16.3
8,Brc1ccc(-c2cnc(NC3CCCC3)[nH]2)cc1 [compound 28],32.7
9,Clc1ccc(-c2cnc(NC3CCCC3)[nH]2)cc1Cl [compound 29],79.8
10,COc1ccc(-c2nc(N)[nH]c2-c2ccccc2)cc1 [compound 30],45.2
11,Nc1nc(-c2ccc(Cl)cc2)c(-c2ccccc2)[nH]1 [compound 31],40.8
12,Cc1ccc(-c2nc(N)[nH]c2-c2ccc(Cl)cc2)cc1 [compound 32],9.5
13,Nc1nc(-c2ccc(C(F)(F)F)cc2)c(-c2ccc(Cl)cc2)[nH]1 [compound 33],26.1
14,CCCCCOc1ccc(Cc2nc(N)n(Cc3ccccc3)c2-c2ccc(C)cc2)cc1 [compound 35],14.8
15,c1ccc(-c2cn(CCCNc3ncc(-c4ccccc4)[nH]3)nn2)cc1 [compound 36],72.9
16,c1ccc(-c2cn(CCCCNc3ncc(-c4ccccc4)[nH]3)nn2)cc1 [compound 37],107
17,COc1ccc(-c2cnc(NCCCn3cc(-c4ccc(Br)cc4)nn3)[nH]2)cc1 [compound 38],16.8
18,Brc1ccc(-c2cnc(NCCCn3cc(C4CCCCC4)nn3)[nH]2)cc1 [compound 39],22.5

# Tested on: human T-lymphocyte (CEM)
# Assay: as above
# Format: cell-based
# Conditions: 72 h, concentration inhibiting cell proliferation by 50%, three days incubation, mean of three repeats
# Procedure: as §1, §2
row,SMILES,IC50 [µM]
1,CC(C)CNc1ncc(-c2ccccc2)[nH]1 [compound 19],383
2,c1ccc(-c2cnc(NC3CCCC3)[nH]2)cc1 [compound 20],293
3,CCCCNc1ncc(-c2ccc(Cl)cc2)[nH]1 [compound 21],375
4,CCCCCNc1ncc(-c2ccc(Cl)cc2)[nH]1 [compound 23],323
5,Clc1ccc(-c2cnc(NC3CCCC3)[nH]2)cc1 [compound 24],591
6,CC(C)CNc1ncc(-c2ccc(Br)cc2)[nH]1 [compound 26],306
7,CCCCCNc1ncc(-c2ccc(Br)cc2)[nH]1 [compound 27],375
8,Brc1ccc(-c2cnc(NC3CCCC3)[nH]2)cc1 [compound 28],674
9,Clc1ccc(-c2cnc(NC3CCCC3)[nH]2)cc1Cl [compound 29],156
10,COc1ccc(-c2nc(N)[nH]c2-c2ccccc2)cc1 [compound 30],52.8
11,Nc1nc(-c2ccc(Cl)cc2)c(-c2ccccc2)[nH]1 [compound 31],48.2
12,Cc1ccc(-c2nc(N)[nH]c2-c2ccc(Cl)cc2)cc1 [compound 32],10.2
13,Nc1nc(-c2ccc(C(F)(F)F)cc2)c(-c2ccc(Cl)cc2)[nH]1 [compound 33],35.5
14,CCCCCOc1ccc(Cc2nc(N)n(Cc3ccccc3)c2-c2ccc(C)cc2)cc1 [compound 35],8.4
15,c1ccc(-c2cn(CCCNc3ncc(-c4ccccc4)[nH]3)nn2)cc1 [compound 36],453
16,c1ccc(-c2cn(CCCCNc3ncc(-c4ccccc4)[nH]3)nn2)cc1 [compound 37],459
17,COc1ccc(-c2cnc(NCCCn3cc(-c4ccc(Br)cc4)nn3)[nH]2)cc1 [compound 38],597
18,Brc1ccc(-c2cnc(NCCCn3cc(C4CCCCC4)nn3)[nH]2)cc1 [compound 39],396

# Tested on: murine leukemia (L1210)
# Assay: as above
# Format: cell-based
# Conditions: Mus musculus, L1210, 48 h; concentration inhibiting cell proliferation by 50%; two days incubation; mean of three repeats
# Procedure: as §1, §2
row,SMILES,IC50 [µM]
1,CC(C)CNc1ncc(-c2ccccc2)[nH]1 [compound 19],83.6
2,c1ccc(-c2cnc(NC3CCCC3)[nH]2)cc1 [compound 20],27.3
3,CCCCNc1ncc(-c2ccc(Cl)cc2)[nH]1 [compound 21],40
4,CCCCCNc1ncc(-c2ccc(Cl)cc2)[nH]1 [compound 23],22
5,Clc1ccc(-c2cnc(NC3CCCC3)[nH]2)cc1 [compound 24],35.5
6,CC(C)CNc1ncc(-c2ccc(Br)cc2)[nH]1 [compound 26],31.7
7,CCCCCNc1ncc(-c2ccc(Br)cc2)[nH]1 [compound 27],14.9
8,Brc1ccc(-c2cnc(NC3CCCC3)[nH]2)cc1 [compound 28],32.7
9,Clc1ccc(-c2cnc(NC3CCCC3)[nH]2)cc1Cl [compound 29],76.1
10,COc1ccc(-c2nc(N)[nH]c2-c2ccccc2)cc1 [compound 30],64.1
11,Nc1nc(-c2ccc(Cl)cc2)c(-c2ccccc2)[nH]1 [compound 31],59.3
12,Cc1ccc(-c2nc(N)[nH]c2-c2ccc(Cl)cc2)cc1 [compound 32],12.3
13,Nc1nc(-c2ccc(C(F)(F)F)cc2)c(-c2ccc(Cl)cc2)[nH]1 [compound 33],41.5
14,CCCCCOc1ccc(Cc2nc(N)n(Cc3ccccc3)c2-c2ccc(C)cc2)cc1 [compound 35],8.6
15,c1ccc(-c2cn(CCCNc3ncc(-c4ccccc4)[nH]3)nn2)cc1 [compound 36],221
16,c1ccc(-c2cn(CCCCNc3ncc(-c4ccccc4)[nH]3)nn2)cc1 [compound 37],218
17,COc1ccc(-c2cnc(NCCCn3cc(-c4ccc(Br)cc4)nn3)[nH]2)cc1 [compound 38],18.4
18,Brc1ccc(-c2cnc(NCCCn3cc(C4CCCCC4)nn3)[nH]2)cc1 [compound 39],20.7

# Tested on: C. elegans
# Assay: not given
# Format: in vivo, Caenorhabditis elegans
# Conditions: 25 µM, after 7 days relative to viability at day 0; mean of at least two repeats
# Procedure: Eggs of a double mutant (glp-4Dsek-1D) of C. elegans were grown on NGM/OP50 agar plates (NGM agar plates on the surface inoculated with 100 µL of an overnight culture of OP50 Escherichia coli and stored at 4 °C until use) at 25 °C until all nematodes had reached the L4 stage. Worms were collected and washed with M9 buffer (3 g/L KH2PO4, 6 g/L Na2HPO4, 5 g/L NaCl, 1 mM MgSO4). For toxicity testing, 40 to 50 worms were suspended in 250 μL M9 (supplemented with 10 µg/mL cholesterol, 75 µg/mL ampicillin and 100 µg/mL kanamycin) buffer in each well of 24-well microtiter plates, in the presence or absence (0.5% DMSO control) of 25, 100 or 200 µM of the test compounds and grown for 7 days at 25 °C. The percentage survival of the worms in the presence or absence of anti-biofilm compounds was calculated after 7 days relative to their viability at day 0.
row,SMILES,C. elegans % survival at 25 µM [%]
1,c1ccc(-c2cnc(NC3CCCC3)[nH]2)cc1 [compound 20],98.1
2,Clc1ccc(-c2cnc(NC3CCCC3)[nH]2)cc1 [compound 24],100.1
3,c1ccc(-c2cn(CCCNc3ncc(-c4ccccc4)[nH]3)nn2)cc1 [compound 36],87.7
4,c1ccc(-c2cn(CCCCNc3ncc(-c4ccccc4)[nH]3)nn2)cc1 [compound 37],86.4
5,Brc1ccc(-c2cnc(NCCCn3cc(C4CCCCC4)nn3)[nH]2)cc1 [compound 39],99.3

# Tested on: P. aeruginosa biofilm
# Assay: not given
# Conditions: concentration preventing biofilm formation (at 25 °C) by 50%; as previously reported ref 13, 14, 15, 16; read-out: BIC50 P. aeruginosa; cited from earlier work
row,SMILES,IC50
1,CC(C)CNc1ncc(-c2ccccc2)[nH]1 [compound 19],1.2 µM
2,c1ccc(-c2cnc(NC3CCCC3)[nH]2)cc1 [compound 20],33.8 µM
3,CCCCCNc1ncc(-c2ccc(Cl)cc2)[nH]1 [compound 23],~6.3 µM and 6.3 µM
4,Clc1ccc(-c2cnc(NC3CCCC3)[nH]2)cc1 [compound 24],13.5 µM
5,CC(C)CNc1ncc(-c2ccc(Br)cc2)[nH]1 [compound 26],1.2 µM
6,CCCCCNc1ncc(-c2ccc(Br)cc2)[nH]1 [compound 27],10.2 µM
7,Brc1ccc(-c2cnc(NC3CCCC3)[nH]2)cc1 [compound 28],7.2 µM
8,Clc1ccc(-c2cnc(NC3CCCC3)[nH]2)cc1Cl [compound 29],7.9 µM
9,CCCCCOc1ccc(Cc2nc(N)n(Cc3ccccc3)c2-c2ccc(C)cc2)cc1 [compound 35],27.4 µM
10,c1ccc(-c2cn(CCCNc3ncc(-c4ccccc4)[nH]3)nn2)cc1 [compound 36],> 400 µM
11,c1ccc(-c2cn(CCCCNc3ncc(-c4ccccc4)[nH]3)nn2)cc1 [compound 37],19 µM
12,COc1ccc(-c2cnc(NCCCn3cc(-c4ccc(Br)cc4)nn3)[nH]2)cc1 [compound 38],42.7 µM
13,Brc1ccc(-c2cnc(NCCCn3cc(C4CCCCC4)nn3)[nH]2)cc1 [compound 39],~12.5 µM and 12.5 µM

# Tested on: S. Typhimurium biofilm
# Assay: not given
# Conditions: concentration preventing biofilm formation (at 25 °C) by 50%; as previously reported ref 13, 14, 15, 16; read-out: BIC50 S. Typhimurium; cited from earlier work
row,SMILES,IC50 [µM]
1,CC(C)CNc1ncc(-c2ccccc2)[nH]1 [compound 19],4.9
2,c1ccc(-c2cnc(NC3CCCC3)[nH]2)cc1 [compound 20],52.9
3,CCCCCNc1ncc(-c2ccc(Cl)cc2)[nH]1 [compound 23],> 400
4,Clc1ccc(-c2cnc(NC3CCCC3)[nH]2)cc1 [compound 24],4.4
5,CC(C)CNc1ncc(-c2ccc(Br)cc2)[nH]1 [compound 26],2.9
6,CCCCCNc1ncc(-c2ccc(Br)cc2)[nH]1 [compound 27],3.1
7,Brc1ccc(-c2cnc(NC3CCCC3)[nH]2)cc1 [compound 28],12.1
8,Clc1ccc(-c2cnc(NC3CCCC3)[nH]2)cc1Cl [compound 29],5.7
9,COc1ccc(-c2nc(N)[nH]c2-c2ccccc2)cc1 [compound 30],77.1
10,Nc1nc(-c2ccc(Cl)cc2)c(-c2ccccc2)[nH]1 [compound 31],46.9
11,Cc1ccc(-c2nc(N)[nH]c2-c2ccc(Cl)cc2)cc1 [compound 32],12.9
12,Nc1nc(-c2ccc(C(F)(F)F)cc2)c(-c2ccc(Cl)cc2)[nH]1 [compound 33],10.8
13,CCCCCOc1ccc(Cc2nc(N)n(Cc3ccccc3)c2-c2ccc(C)cc2)cc1 [compound 35],10.3
14,c1ccc(-c2cn(CCCNc3ncc(-c4ccccc4)[nH]3)nn2)cc1 [compound 36],36.5
15,c1ccc(-c2cn(CCCCNc3ncc(-c4ccccc4)[nH]3)nn2)cc1 [compound 37],40
16,COc1ccc(-c2cnc(NCCCn3cc(-c4ccc(Br)cc4)nn3)[nH]2)cc1 [compound 38],91.2
17,Brc1ccc(-c2cnc(NCCCn3cc(C4CCCCC4)nn3)[nH]2)cc1 [compound 39],8.4

# Reference: article PMC6271933, “Evaluation of the Toxicity of 5-Aryl-2-Aminoimidazole-Based Biofilm Inhibitors against Eukaryotic Cell Lines, Bone Cells and the Nematode Caenorhabditis elegans” (Molecules, 2014)
